Reference: patent US5578592A, “Cephalosporin derivatives” (Pfizer Inc., priority 1992, dated 1996)

Assays:
Assay type in all cases: cell-based
E. Coli 10418 = test: In vitro antibacterial activity (MIC), E. Coli 10418; details: Escherichia coli
H. Influenzae Q1 = test: In vitro antibacterial activity (MIC), H. Influenzae Q1; details: Haemophilus influenzae
H. influenzae W/M 493 = test: In vitro antibacterial activity (MIC), H. influenzae W/M 493; details: Haemophilus influenzae
S. aureus Oxford = test: In vitro antibacterial activity (MIC), S. aureus Oxford; details: Staphylococcus aureus
S. aureus Russell = test: In vitro antibacterial activity (MIC), S. aureus Russell; details: Staphylococcus aureus
S. epidermis PHLN20 = test: In vitro antibacterial activity (MIC), S. epidermis PHLN20

In the case of `CO/N=C(\C(=O)N[C@@H]1C(=O)N2C(C(=O)O)=C3[C@H]4Oc5ccccc5[C@H]4[C@@H]3S[C@H]12)c1csc(N)n1` [Example 14, Sodium (4S,8R,9S,11R,12R)-12-[2-(2-aminothiazol-4-yl)-2-(Z)-methoxy-iminoacetamido]-13-oxo-5-oxa-10-thia-1-aza-6,7-benzotetracyclo[9.2.0.0^3,9.0^4,8]tridec-2-ene-carboxylate], the MIC (E. Coli 10418) was 0.12 mg/L, the MIC (H. Influenzae Q1) was < 0.06 mg/L and the MIC (H. influenzae W/M 493) was 0.5 mg/L. It also gave an MIC (S. aureus Oxford) of 0.5 mg/L, an MIC (S. aureus Russell) of 1 mg/L and an MIC (S. epidermis PHLN20) of 0.25 mg/L.
